Assay results from US5852034A, “Benzo(5,6)cycloheptapyridine cyclic ureas and lactams useful as farnesyl protein transferase inhibitors” (Schering Corporation, priority 1997, dated 1998).

What was measured:
[1] = biological target: farnesyl protein transferase (Homo sapiens, UniProt P49354+P49356); test: FPT IC50 (inhibition of farnesyl protein transferase, in vitro enzyme assay); type: biochemical; details: procedures described in WO 95/10516
Description: (§1) FPT IC50 (inhibition of farnesyl protein transferase, in vitro enzyme assay), COS Cell IC50 (Cell-Based Assay), GGPT IC50 (inhibition of geranylgeranyl protein transferase, in vitro enzyme assay), Cell Mat Assay, and anti-tumor activity (in vivo anti-tumor studies) are determined by the assay procedures described in WO 95/10516.

[2] = tested on: Ras processing in COS cells; test: COS Cell IC50 (Cell-Based Assay), inhibition of Ras processing; details: procedures described in WO 95/10516
Description: as §1

| SMILES | IC50 [1] [nM] | IC50 [2] [nM] |
| --- | --- | --- |
| O=C(CN1CCCC1=O)N1CCC([C@H]2c3ncc(Br)cc3CCc3cc(Cl)cc(Br)c32)CC1 [Example 1, (+)-4-(3,10-Dibromo-8-chloro-6,11-dihydro-5H-benzo[5,6]cyclohepta-[1,2-b]pyridin-11-yl)-1-[(2-oxo-1-pyrrolidinyl)acetyl]piperidine] | 4 | 500 |
| O=C1CCCN1CCCC(=O)N1CCC([C@H]2c3ncc(Br)cc3CCc3cc(Cl)cc(Br)c32)CC1 [Example 3, (+)-4-(3,10-Dibromo-8-chloro-6,11-dihydro-5H-benzo[5,6]cyclohepta-[1,2-b]pyridin-11-yl)-1-[1-oxo-4-(2-oxo-1-pyrrolidinyl)butyl]piperidine] | 85 |  |
| O=C(CCN1CCCNC1=O)N1CCC([C@H]2c3ncc(Br)cc3CCc3cc(Cl)cc(Br)c32)CC1 [Example 11, (+)-4-(3,10-Dibromo-8-chloro-6,11-dihydro-5H-benzo[5,6]cyclohepta-[1,2-b]pyridin-11-yl)-1-[1-oxo-3-(hexahydo-2-oxo-1-pyrimidinyl)-oxopropyl]piperidine] | 20 |  |
| O=C(CCCN1CCNC1=O)N1CCC([C@H]2c3ncc(Br)cc3CCc3cc(Cl)cc(Br)c32)CC1 [Example 9] | 16 |  |
| O=C(CN1CCCCC1=O)N1CCC([C@H]2c3ncc(Br)cc3CCc3cc(Cl)cc(Br)c32)CC1 [Example 4, (+)-4-(3,10-Dibromo-8-chloro-6,11-dihydro-5H-benzo[5,6]cyclohepta-[1,2-b]pyridin-11-yl)-1-[(2-oxo-1-piperidinyl)acetyl]piperidine] | 2.8 |  |
| O=C(CN1CCNC1=O)N1CCC([C@H]2c3ncc(Br)cc3CCc3cc(Cl)cc(Br)c32)CC1 [Example 7, (+)-4-(3,10-Dibromo-8-chloro-6,11-dihydro-5H-benzo[5,6]cyclohepta-[1,2-b]pyridin-11-yl)-1-[(2-oxo-1-imidazolidinyl)acetyl]piperidine] | 23 |  |
| O=C(CCCN1CCCNC1=O)N1CCC([C@H]2c3ncc(Br)cc3CCc3cc(Cl)cc(Br)c32)CC1 [Example 12, (+)-4-(3,10-Dibromo-8-chloro-6,11-dihydro-5H-benzo[5,6]cyclohepta[1,2-b]pyridin-11-yl)-1-[4-(hexahydo-2-oxo-1-pyrimidinyl)oxobutyl]piperidine] | 56 |  |
| O=C1CCCCN1CCCC(=O)N1CCC([C@H]2c3ncc(Br)cc3CCc3cc(Cl)cc(Br)c32)CC1 [Example 6, (+)-4-(3,10-Dibromo-8-chloro-6,11-dihydro-5H-benzo[5,6]cyclohepta-[1,2-b]pyridin-11-yl)-1-[1-oxo-4-(2-oxo-1-piperidinyl)butyl]piperidine] | 80 |  |
| O=C1CCCCN1CCC(=O)N1CCC([C@H]2c3ncc(Br)cc3CCc3cc(Cl)cc(Br)c32)CC1 [Example 5, (+)-4-(3,10-Dibromo-8-chloro-6,11-dihydro-5H-benzo[5,6]cyclohepta-[1,2-b]pyridin-11-yl)-1-[1-oxo-3-(2-oxo-1-piperidinyl)propyl]piperidine] | 19 |  |
| O=C(CN1CCCNC1=O)N1CCC([C@H]2c3ncc(Br)cc3CCc3cc(Cl)cc(Br)c32)CC1 [Example 10, (+)-4-(3,10-Dibromo-8-chloro-6,11-dihydro-5H-benzo[5,6]cyclohepta-[1,2-b]pyridin-11-yl)-1-[(hexahydro-2-oxo-1-pyrimidinyl)acetyl]piperidine] | 3.2 | 16 |
